The source of these data is patent US20250163057A1, “DCN-1 MODULATING COMPOUNDS AND METHODS OF USE THEREOF” (Cellarity, Inc., priority 2023, published 2025).

pEC50, pIC50: −log10 of the molar value. Where two headings read alike, the source gives them in different places.

In one assay the target is DCN1 protein (Homo sapiens (Human), UniProt Q96GG9). Kind of assay: Intact Protein MS Analysis with the RapidFire-TOF System (covalent adduct formation). In kind it is binding. Particulars: MS Emax; 400 nM DCN1, 3 hours at room temperature. A digest of the protocol:
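Tag-cleaved human DCN1 (400 nM) expressed in E. coli, in 25 mM Tris-HCl, 200 mM NaCl, 1 mM DTT, was incubated with 11 compound concentrations for 3 h at room temperature and quenched with 0.2% formic acid. Intact-protein Q-TOF MS with deconvolution detected the compound adduct mass.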

Assay [1] deals with DCN1 (DCUND1) protein PONY domain (Homo sapiens (Human), UniProt Q96GG9). Nature of the assay: TR-FRET assay, DCN1 binding with FAM-labeled probe. Particulars: for IC50: TR FRET IC50 1 hr (nM). The procedure, abridged: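 Tb-DCN1 PONY domain (E. coli, biotin/streptavidin-Tb); FAM-labelled non-covalent inhibitor probe; TritonX buffer, 200 mM NaCl; 5 nM DCN1 + 20 nM probe or 0.31 nM DCN1 + 900 nM total probe; 0.1% DMSO; TR-FRET read 1, 5, 24 hrs.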
Sequence of DCN1 (DCUND1) protein PONY domain (Q96GG9 60-248): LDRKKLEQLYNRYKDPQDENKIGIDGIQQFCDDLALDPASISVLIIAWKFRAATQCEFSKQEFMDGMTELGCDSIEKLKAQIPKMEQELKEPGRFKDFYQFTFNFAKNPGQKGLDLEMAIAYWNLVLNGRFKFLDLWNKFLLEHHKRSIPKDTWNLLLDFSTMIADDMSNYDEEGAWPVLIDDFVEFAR
(In general: TR-FRET usually uses a lanthanide donor and a delayed reading to cut background.)

In assay [2] the test system is Cullin-3 (CUL3) neddylation. Kind of assay: AlphaLISA assay for Cullin-3 (CUL3) neddylation in TF 1 cells. Particulars: 3 hours treatment. In kind it is cell-based. The procedure, abridged: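 Neddylated CUL3 was quantified by AlphaLISA in lysates of TF 1 cells exposed for 3 h to test compound in IMDM without supplements. Percent inhibition set between vehicle and 1 μM DI-1548 positive control; IC50 derived by Hill-equation fitting of dose-response curves.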
(Alpha assays give light when donor and acceptor beads are brought close together.)

Assay [3] has as its system fetal hemoglobin gene HBG1. Nature of the assay: HBG1 Nanostring Assay in CD34+ HSPC erythroid differentiation culture. In kind it is cell-based, human. As to conditions: for pEC50: HBG1 induction, Day10 of erythroid differentiation; for Nanostring Ymax obs (%): relative to a control compound (C1). A digest of the protocol:
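HBG1 counts came from direct nCounter hybridization (67° C, 22 h) of day-10 lysates, normalized to ERCC positive controls and a housekeeping gene, giving EC50 and Ymax versus a reference compound. Compounds in 0.1% DMSO were present from day −2 while cells underwent EPO/SCF/IL-3 erythroid differentiation, with IL-3 dropped at day 7, at 37° C.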

The mark [4] stands for this setting: 24 hr after treatment with compound, read-out: TR FRET IC50 24 hr.
Setting [5] is: 1 hr after treatment with compound.
[6] abbreviates: read-out: TR FRET IC50 1 hr, 1 hr after treatment with compound.

Sequence of DCN1 protein (Q96GG9 whole entry): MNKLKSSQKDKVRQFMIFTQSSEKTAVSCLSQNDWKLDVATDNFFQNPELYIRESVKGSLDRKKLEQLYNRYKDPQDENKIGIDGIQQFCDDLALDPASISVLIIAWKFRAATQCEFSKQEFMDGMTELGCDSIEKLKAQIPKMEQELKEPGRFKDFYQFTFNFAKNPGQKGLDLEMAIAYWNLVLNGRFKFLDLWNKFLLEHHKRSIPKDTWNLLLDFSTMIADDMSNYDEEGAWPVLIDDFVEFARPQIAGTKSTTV

Broadly, the pIC50 is the IC50 on a negative log10 scale, so that one unit is a factor of ten. What is called IC50 is the concentration that gives 50% inhibition. The term pEC50 denotes the negative decadic logarithm of the EC50, by convention in mol/L. A higher pEC50 goes with a small EC50. With `CCN1C(=O)[C@@H](NC(=O)c2cccc(C(F)(F)F)c2)[C@@H](c2ccc(F)cc2)c2c(CNC(=O)C#CCN(C)C)nn(-c3ccccc3)c21` (racemic) [Compound I-19, rac-N-((4R,5R)-3-((4-(dimethylamino)but-2-ynamido)methyl)-7-ethyl-4-(4-fluorophenyl)-6-oxo-1-phenyl-4,5,6,7-tetrahydro-1H-pyrazolo[3,4-b]pyridine-5-yl)-3-(trifluoromethyl)benzamide], the “% Adduct Formation” value on DCN1 protein was “+++ (MS Emax % adduct formation greater than 80.0 and less than or equal to 100.0)”. The pIC50 was no less than 6.70 in assay [1] (setting [4]) and no less than 7.00 in assay [2] (Homo sapiens, TF-1, 3 h). Besides, the IC50 in assay [1] (setting [5]) was no more than 200 nM. Also, the pEC50 in assay [3] (Homo sapiens, 240 h) was no less than 7.00. For the same compound, in assay [3], the “Nanostring Ymax obs (%)” value was “+++ (Nanostring Ymax greater than 100.0)”.

Take `C=CS(=O)(=O)N[C@H](C)c1nn(-c2ccccc2)c2c1[C@H](c1ccc(F)cc1)[C@H](NC(=O)c1cccc(C(F)(F)F)c1)C(=O)N2CC` (mixture of isomers) [Compound I-74]: the “% Adduct Formation” value at DCN1 protein was “+++ (MS Emax % adduct formation greater than 80.0 and less than or equal to 100.0)”. Also, the pIC50 in assay [1] (setting [4]) is no less than 6.70; in assay [1] (setting [6]), no less than 6.70; in assay [2] (Homo sapiens, TF-1, 3 h) it was no less than 7.00. The pEC50 in assay [3] (Homo sapiens, 240 h) is 6.00 to 7.00. Further, the “Nanostring Ymax obs (%)” value in assay [3] is “++ (Nanostring Ymax greater than 50.0 and less than or equal to 100.0)”.

With `CCN1C(=O)[C@@H](NC(=O)c2cccc(C(F)(F)F)c2)[C@@H](c2ccc(F)cc2)c2c(CNC(=O)C3(C#N)CC3)nn(-c3ccccc3)c21` (racemic) [Compound I-37, rac-N-((4R,5R)-3-((1-cyanocyclopropane-1-carboxamido)methyl)-7-ethyl-4-(4-fluorophenyl)-6-oxo-1-phenyl-4,5,6,7-tetrahydro-1H-pyrazolo[3,4-b]pyridine-5-yl)-3-(trifluoromethyl)benzamide], the “% Adduct Formation” value on DCN1 protein was “+ (MS Emax % adduct formation greater than or equal to 0.0 and less than or equal to 30.0)”. The pIC50 in assay [1] (setting [4]) was 5.52 to 6.00; in assay [2] (Homo sapiens, TF-1, 3 h), 6.00 to 7.00. Further, in assay [1] (setting [5]), the IC50 was in the range of 1000 to 3000 nM. Further, the negative logarithm of the EC50 (pEC50) in assay [3] (Homo sapiens, 240 h) was less than 6.00. Further, the “Nanostring Ymax obs (%)” value in assay [3] is “+ (Nanostring Ymax greater than or equal to 0.0 and less than or equal to 50.0)”.

Turning to `CCN1C(=O)[C@@H](NC(=O)c2cccc(C(F)(F)F)c2)[C@@H](C2CC2)c2c(C(=O)N3CCNC[C@@H]3C#N)nn(C3CCOCC3)c21` (single isomer, unassigned) [Compound I-371], the “% Adduct Formation” value on DCN1 protein is “+++ (MS Emax % adduct formation greater than 80.0 and less than or equal to 100.0)”. The pIC50 in assay [1] (setting [4]) was no less than 6.70; in assay [2] (Homo sapiens, TF-1, 3 h), no less than 7.00. The IC50 in assay [1] (setting [5]) lay in the range of 200 to 1000 nM. Further, the pEC50 in assay [3] (Homo sapiens, 240 h) was 6.00 to 7.00. In assay [3], the “Nanostring Ymax obs (%)” value is “++ (Nanostring Ymax greater than 50.0 and less than or equal to 100.0)”.

`CCN1C(=O)[C@H](NC(=O)c2cccc(C(F)(F)F)c2)[C@@H](c2ccc(F)cc2)c2c(CNC(=O)/C(C)=C/C(=O)OC)nn(-c3ccccc3)c21` [Compound I-108]: on DCN1 protein, the “% Adduct Formation” value was “+ (MS Emax % adduct formation greater than or equal to 0.0 and less than or equal to 30.0)”. The pIC50 in assay [1] (setting [4]) is 6.00 to 6.70; in assay [2] (Homo sapiens, TF-1, 3 h), no less than 7.00. In addition, in assay [1] (setting [5]), the IC50 fell in the range of 200 to 1000 nM. In assay [3] (Homo sapiens, 240 h), this compound gave a pEC50 of less than 6.00. For the same compound, in assay [3], the “Nanostring Ymax obs (%)” value was “++ (Nanostring Ymax greater than 50.0 and less than or equal to 100.0)”.

As to `CC#CC(=O)Nc1nn(-c2ccccc2)c2c1[C@H](c1ccc(F)cc1)[C@H](NC(=O)c1cccc(C(F)(F)F)c1)C(=O)N2CC` (racemic) [Compound I-51], the “% Adduct Formation” value at DCN1 protein is “+ (MS Emax % adduct formation greater than or equal to 0.0 and less than or equal to 30.0)”. Also, the pIC50 was 6.00 to 6.70 in assay [1] (setting [4]) and 6.00 to 7.00 in assay [2] (Homo sapiens, TF-1, 3 h). For the same compound, in assay [1] (setting [5]), the IC50 is 200 to 1000 nM. The same compound showed a pEC50 in assay [3] (Homo sapiens, 240 h) of 6.00 to 7.00. The “Nanostring Ymax obs (%)” value in assay [3] is “+++ (Nanostring Ymax greater than 100.0)”.

`CCN1C(=O)[C@@H](NC(=O)c2cccc(C(F)(F)F)c2)[C@H](c2ccc(F)cc2)c2c(CNC(=O)/C=C(\C)C(=O)OC)nn(-c3ccccc3)c21` [Compound I-104]: the “% Adduct Formation” value at DCN1 protein was “+ (MS Emax % adduct formation greater than or equal to 0.0 and less than or equal to 30.0)”. Also, the pIC50 in assay [1] (setting [4]) is 6.00 to 6.70; in assay [2] (Homo sapiens, TF-1, 3 h), 6.00 to 7.00. Besides, in assay [1] (setting [5]), the 50% inhibitory concentration (IC50) is 200 to 1000 nM. This compound gave a pEC50 in assay [3] (Homo sapiens, 240 h) of less than 6.00. Also, the “Nanostring Ymax obs (%)” value in assay [3] is “++ (Nanostring Ymax greater than 50.0 and less than or equal to 100.0)”.

On to `C[C@@H](NC#N)c1nn(-c2ccccc2)c2c1[C@H](c1ccc(F)cc1)[C@H](NC(=O)c1cccc(C(F)(F)F)c1)C(=O)N2CCO` [Compound I-274], for which the “% Adduct Formation” value at DCN1 protein is “+++ (MS Emax % adduct formation greater than 80.0 and less than or equal to 100.0)”. Besides, the pIC50 in assay [1] (setting [4]) is no less than 6.70; in assay [1] (setting [6]), no less than 6.70; in assay [2] (Homo sapiens, TF-1, 3 h) it was no less than 7.00. In assay [3], the “Nanostring Ymax obs (%)” value was “+ (Nanostring Ymax greater than or equal to 0.0 and less than or equal to 50.0)”.

For the compound `CCN1C(=O)[C@@H](NC(=O)c2cccc(C(F)(F)F)c2)[C@@H](c2ccc(F)cc2)c2c(CN(C)C#N)nn(-c3ccccc3)c21` [Compound I-129], the “% Adduct Formation” value on DCN1 protein is “+++ (MS Emax % adduct formation greater than 80.0 and less than or equal to 100.0)”. Also, in assay [1] (setting [4]), the pIC50 was no less than 6.70. The IC50 in assay [1] (setting [5]) was 200 to 1000 nM. The pIC50 in assay [2] is 6.00 to 7.00. Moreover, in assay [3], the pEC50 is less than 6.00; the “Nanostring Ymax obs (%)” value is “+ (Nanostring Ymax greater than or equal to 0.0 and less than or equal to 50.0)”.

Turning to `C=C(C(=O)O)c1nn(-c2ccccc2)c2c1[C@H](c1ccc(F)cc1)[C@H](NC(=O)c1cccc(C(F)(F)F)c1)C(=O)N2CC` (racemic) [Compound I-53, rac-2-((4R,5R)-7-ethyl-4-(4-fluorophenyl)-6-oxo-1-phenyl-5-(3-(trifluoromethyl)benzamido)-4,5,6,7-tetrahydro-1H-pyrazolo[3,4-b]pyridine-3-yl)acrylic acid], on DCN1 protein, the “% Adduct Formation” value is “++ (MS Emax % adduct formation greater than 30.0 and less than or equal to 80.0)”. For the same compound, the pIC50 in assay [1] (setting [4]) was 6.00 to 6.70; in assay [2] (Homo sapiens, TF-1, 3 h), 6.00 to 7.00. The half-inhibitory concentration (IC50) in assay [1] (setting [5]) fell in the range of 1000 to 3000 nM. The compound also had a pEC50 in assay [3] (Homo sapiens, 240 h) of less than 6.00. Besides, the “Nanostring Ymax obs (%)” value in assay [3] is “+++ (Nanostring Ymax greater than 100.0)”.

`CCN1C(=O)[C@@H](NC(=O)c2cccc(C(F)(F)F)c2)[C@@H](c2ccc(F)cc2)c2c(CN(C)C(=O)/C=C/CN(C)C)nn(-c3ccccc3)c21` [Compound I-117]: the “% Adduct Formation” value at DCN1 protein was “+ (MS Emax % adduct formation greater than or equal to 0.0 and less than or equal to 30.0)”. The pIC50 is 6.00 to 6.70 in assay [1] (setting [4]) and less than 6.00 in assay [2] (Homo sapiens, TF-1, 3 h). Also, the IC50 in assay [1] (setting [5]) was in the range of 200 to 1000 nM. In assay [3] (Homo sapiens, 240 h), this compound showed a pEC50 of less than 6.00. Further, in assay [3], the “Nanostring Ymax obs (%)” value was “+ (Nanostring Ymax greater than or equal to 0.0 and less than or equal to 50.0)”.

In the case of `C=CS(=O)(=O)N(C)Cc1nn(-c2ccccc2)c2c1[C@H](c1ccc(F)cc1)[C@H](NC(=O)c1cccc(C(F)(F)F)c1)C(=O)N2CC` (racemic) [Compound I-1], the “% Adduct Formation” value at DCN1 protein is “+++ (MS Emax % adduct formation greater than 80.0 and less than or equal to 100.0)”. In addition, the pIC50 in assay [1] (setting [4]) was no less than 6.70; in assay [1] (setting [6]), no less than 6.70; in assay [2] (Homo sapiens, TF-1, 3 h), no less than 7.00. Besides, the pEC50 in assay [3] (Homo sapiens, 240 h) is less than 6.00. The “Nanostring Ymax obs (%)” value in assay [3] was “++ (Nanostring Ymax greater than 50.0 and less than or equal to 100.0)”.
